Assay results reported in US12122776B2, “Tetracyclic compounds and uses thereof” (Gilead Sciences, Inc., priority 2020, dated 2024).
Like-named read-outs stand apart in the source and are kept apart here.

Tests used:
Type in all cases: cell-based
[1] = test system: HIV-1 (IIIB); test: Antiviral assay in MT-4 cells; conditions: Human immunodeficiency virus 1, MT4, 120 h; replication of HIV-1 (IIIB) in MT-4 cells, 5 days incubation, Cell Titer Glo
Protocol: Example 24: HIV MT-4 Antiviral and Cytotoxicity Assay
Antiviral Assay in MT-4 Cells
Compounds were tested in a high-throughput 384-well assay format for their ability to inhibit the replication of HIV-1 (IIIB) in MT-4 cells. Compounds were serially diluted (1:3) in DMSO on 384-well polypropylene plates and further diluted 200-fold into complete RPMI media (10% FBS, 1% P/S) using the Biotek Micro Flow and Labcyte ECHO acoustic dispenser. Each plate contained up to 8 test compounds, with negative (No Drug Control) and 5 μM AZT positive controls. MT-4 cells were pre-infected with 10 μL of either RPMI (mock-infected) or a fresh 1:250 dilution of HIV-1 IIIB concentrated virus stock. Infected and uninfected MT-4 cells were further diluted in complete RPMI media and added to each plate using a Micro Flow dispenser. After 5 days incubation in a humidified and temperature controlled incubator (37° C.), Cell Titer Glo (Promega) was added to the assay plates and chemiluminescence read using an Envision plate-reader. EC50 values were defined as the compound concentration that causes a 50% decrease in luminescence signal, and were calculated using a sigmoidal dose-response model to generate curve fits.

[2] = Cytotoxicity assay in MT-4 cells; conditions: human; uninfected MT-4 cells, 5 days incubation, Cell Titer Glo
Protocol: Cytotoxicity Assay in MT-4 Cells Assays were performed as above except uninfected MT-4 cells were added to each well containing test compound. In addition, 10 μM puromycin was added to the last column of each assay plate to assess a base level of cytotoxicity.

[3] = test system: pLai RLuc reporter virus; test: HIV MT-4 serum shift antiviral reporter assay; conditions: Human immunodeficiency virus 1, MT4, 72 h
Protocol: Example 25: HIV MT-4 Serum Shift Antiviral Reporter Assay
To quantify the amount of protein binding to human serum, compounds were serially diluted (1:3) in DMSO and acoustically transferred onto 384-well assay plates via a Labcyte ECHO robot. Each plate contained up to 8 test compounds, including negative and positive controls, (DMSO, 5 μM AZT respectively). Assay plates were prepared in duplicate, and tested in either CCM (cell culture media) or HS/CCM (human serum/cell culture media). MT-4 cells were first pre-infected with pLai RLuc reporter virus for 2 h at 37° C., then further diluted in either CCM (RPMI media, 10% FBS, 1% P/S) or HS/CCM (RPMI media, 10% FBS, 50% HS, 1% P/S), and subsequently added to each plate using a Biotek Micro Flow dispenser. After a 72-h incubation in a humidified and temperature controlled incubator (37° C.), Renilla Glo (Promega) was added to all assay plates and chemiluminescence read using an Envision plate-reader. EC50 values were defined as the compound concentration that causes a 50% decrease in luminescence signal, and were calculated using a sigmoidal dose-response model to generate curve fits. To determine the amount of protein binding, EC50 fold shifts (or EC50 shifts) were calculated by dividing EC50 (HS/CCM)/EC50 (CCM).

[4] = read-out: Antiviral Serum Shift RLuc 50% HS
[5] = read-out: Antiviral Serum Shift RLuc CCM

EC50 [1] [nM]	Structure (SMILES)	CC50 at 5 days [2] [nM]	EC50 [3, 4] [nM]	EC50 [3, 5] [nM]
2.8	O=C(NCc1c(F)cc(F)cc1F)c1c2n3c(c(O)c1=O)C(=O)N1CCCC[C@]3(CC2CO)C1 (single isomer, unassigned) [Compound 16]	7450	–	–
9.5	CO[C@@H]1c2c(C(=O)NCc3c(F)cc(F)cc3F)c(=O)c(O)c3n2[C@@]2(CCCCN(C2)C3=O)[C@H]1OC (single isomer, unassigned) [Compound 13-3]	10100	–	–
1.7	CO[C@@H]1[C@@H](OC)c2c(C(=O)NCc3c(F)cc(F)cc3F)c(=O)c(O)c3n2[C@@]12CCCCN(C2)C3=O (single isomer, unassigned) [Compound 13-1]	27800	–	–
2.6	O=C(NCc1cccc(Cl)c1F)c1c2n3c(c(O)c1=O)C(=O)N1CCCC[C@]3(CC2)C1 [Compound 6, (6aS)—N-(3-chloro-2-fluorobenzyl)-11-hydroxy-1,10-dioxo-1,3,4,5,6,7,8,10-octahydro-2,6a-methano[1,4]diazonino[9,1,2-cd]indolizine-9-carboxamide]	3680	–	–
1.8	CO[C@H]1C=C[C@H](C)N2C[C@]13CCc1c(C(=O)NCc4c(F)cc(F)cc4F)c(=O)c(O)c(n13)C2=O [Compound 22, (3S,6S,6aR)-11-hydroxy-6-methoxy-3-methyl-1,10-dioxo-N-(2,4,6-trifluorobenzyl)-1,3,6,7,8,10-hexahydro-2,6a-methano[1,4]diazonino[9,1,2-cd]indolizine-9-carboxamide]	1940	–	–
7.33	CO[C@@H]1C[C@]23CCCCN(C2)C(=O)c2c(O)c(=O)c(C(=O)NCc4c(F)cc(F)cc4F)c1n23 (single isomer, unassigned) [Compound 12-4]	–	–	–
1.2	CO[C@H]1C=C[C@H](C)N2C[C@]13CC(O)c1c(C(=O)NCc4ccc(F)cc4F)c(=O)c(O)c(n13)C2=O (stereo partly drawn) [Compound 19-3, (1R,11S,14S)—N-[(2.4 difluorophenyl)methyl]-3.7 dihydroxy-14-methoxy-11-methyl-6,9-dioxo-10,15-diazatetracyclo[6.6.1.11,10.04,15]hexadeca-4,7,12-triene-5-carboxamide]	6950	–	–
10.7	CO[C@@H]1[C@@H](OC)c2c(C(=O)NCc3c(F)cc(F)cc3F)c(=O)c(O)c3n2[C@]12CCCCN(C2)C3=O (single isomer, unassigned) [Compound 13-4]	30700	–	–
1.1	CO[C@@H]1c2c(C(=O)NCc3c(F)cc(F)cc3F)c(=O)c(O)c3n2[C@]2(CCCCN(C2)C3=O)[C@H]1OC (single isomer, unassigned) [Compound 13-2]	24700	–	–
4.47	CO[C@H]1C[C@@]23CCCCN(C2)C(=O)c2c(O)c(=O)c(C(=O)NCc4c(F)cc(F)cc4F)c1n23 (single isomer, unassigned) [Compound 12-3]	14800	–	–
2.1	CO[C@H]1CC[C@H](C)N2C[C@]13CCc1c(C(=O)NCc4ccc(F)cc4F)c(=O)c(O)c(n13)C2=O [Compound 19-1, (1R,11S,14S)—N-[(2.4 difluorophenyl)methyl]-7-hydroxy-14-methoxy-11-methyl-6,9-dioxo-10,15-diazatetracyclo[6.6.1.11,10.04,15]hexadeca-4.7 diene-5-carboxamide]	4600	–	–
2.29	O=C(NCc1c(F)cc(F)cc1F)c1c2n3c(c(O)c1=O)C(=O)N1CCCC[C@@]3(C[C@H]2F)C1 (single isomer, unassigned) [Compound 8-2]	–	–	–
–	O=C(NCc1c(F)cc(F)cc1F)c1c2n3c(c(O)c1=O)C(=O)N1CCCC[C@]3(C1)[C@H](O)[C@H]2O (single isomer, unassigned) [Compound 11-2]	–	48.4	1.52
0.86	CO[C@H]1C=C[C@H](C)N2C[C@]13CCc1c(C(=O)NCc4ccc(F)cc4F)c(=O)c(O)c(n13)C2=O [Compound 19-2, (1R,11S,14S)—N-[(2.4 difluorophenyl)methyl]-7-hydroxy-14-methoxy-11-methyl-6,9-dioxo-10,15-diazatetracyclo[6.6.1.11,10.04,15]hexadeca-4,7,12-triene-5-carboxamide]	1870	–	–
5.7	C[C@H]1CC[C@H](O)[C@]23CCc4c(C(=O)NCc5c(F)cc(F)cc5F)c(=O)c(O)c(n42)C(=O)N1C3 [Compound 23-1, (3S,6S,6aR)-6,11-dihydroxy-3-methyl-1,10-dioxo-N-(2,4,6-trifluorobenzyl)-1,3,4,5,6,7,8,10-octahydro-2,6a-methano[1,4]diazonino[9,1,2-cd]indolizine-9-carboxamide]	26600	–	–

Structure (SMILES)	EC50 [1] [nM]	CC50 at 5 days [2] [nM]	EC50 [3, 4] [nM]	EC50 [3, 5] [nM]
CO[C@H]1C[C@]23CCCCN(C2)C(=O)c2c(O)c(=O)c(C(=O)NCc4c(F)cc(F)cc4F)c1n23 (single isomer, unassigned) [Compound 12-2]	3.26	11100	98.4	1.14
C[C@H]1C=CC[C@]23C[C@@H](O)c4c(C(=O)NCc5c(F)cc(F)cc5F)c(=O)c(O)c(n42)C(=O)N1C3 (single isomer, unassigned) [Compound 21-1]	1.04	4840	27	0.26
O=C(NCc1ccc(F)cc1F)c1c2n3c(c(O)c1=O)C(=O)N1CCCC[C@@]3(C[C@H]2O)C1 (single isomer, unassigned) [Compound 10-2]	1.05	4120	21.1	0.417
O=C(NCc1c(F)cc(F)cc1F)c1c2n3c(c(O)c1=O)C(=O)N1CCCC[C@@]3(C1)[C@@H](O)[C@@H]2O (single isomer, unassigned) [Compound 11-3]	5.28	50000	7.57	4.08
O=C(NCc1c(F)cc(F)cc1F)c1c2n3c(c(O)c1=O)C(=O)N1CCCC[C@]3(C[C@@H]2F)C1 (single isomer, unassigned) [Compound 8-1]	0.86	7380	25.4	0.429
C[C@H]1C=CC[C@]23CCc4c(C(=O)NCc5c(F)cc(F)cc5F)c(=O)c(O)c(n42)C(=O)N1C3 [Compound 20, (3S,6aS)-11-hydroxy-3-methyl-1,10-dioxo-N-(2,4,6-trifluorobenzyl)-1,3,6,7,8,10-hexahydro-2,6a-methano[1,4]diazonino[9,1,2-cd]indolizine-9-carboxamide]	0.83	3340	16	0.31
O=C(NCc1c(F)cc(F)cc1F)c1c2n3c(c(O)c1=O)C(=O)N1CCCC[C@@]3(C[C@@H]2O)C1 (single isomer, unassigned) [Compound 9-4]	0.703	6400	5.19	0.388
O=C(NCc1c(F)cc(F)cc1F)c1c2n3c(c(O)c1=O)C(=O)N1CCCC[C@@]3(CC2)C1 [Compound 1, (6aR)-11-hydroxy-1,10-dioxo-N-(2,4,6-trifluorobenzyl)-1,3,4,5,6,7,8,10-octahydro-2,6a-methano[1,4]diazonino[9,1,2-cd]indolizine-9-carboxamide]	1.35	4300	8.71	0.299
C[C@H]1C=CC[C@]23C[C@H](O)c4c(C(=O)NCc5c(F)cc(F)cc5F)c(=O)c(O)c(n42)C(=O)N1C3 (single isomer, unassigned) [Compound 21-2]	0.8	5370	12	0.27
O=C(NCc1c(F)cc(F)cc1F)c1c2n3c(c(O)c1=O)C(=O)N1CCCC[C@]3(CC2)C1 [Compound 2, (6aS)-11-hydroxy-1,10-dioxo-N-(2,4,6-trifluorobenzyl)-1,3,4,5,6,7,8,10-octahydro-2,6a-methano[1,4]diazonino[9,1,2-cd]indolizine-9-carboxamide]	2.26	6160	20.8	0.351
O=C(NCc1ccc(F)cc1F)c1c2n3c(c(O)c1=O)C(=O)N1CCCC[C@]3(C[C@@H]2O)C1 (single isomer, unassigned) [Compound 10-3]	3.31	9470	25.6	0.632
